pIC50: −log10 of the molar value. Read-outs that look alike come from different tables or passages of the source.
Biological target: T1, Jak1 (Homo sapiens, UniProt P23458)
T1 construct: using a recombinant purified GST-tagged catalytic domain for each enzyme; GST; purchased Invitrogen M4290
Experiment: Jak Biochemical HTRF Assay (Jak1)
Conditions: recombinant GST-tagged catalytic domain
From the text: Compounds of formula I can be prepared according to the general procedures described in the Schemes and Examples herein, using appropriate materials. Representative compounds of the present invention are exemplified herein below. The compounds exemplified are not, however, to be construed as limiting the scope of the invention in any manner. The examples further illustrate details for the preparation of the compounds of the present invention. Those skilled in the art will readily understand that known variations of protecting groups, of reagents, as well as of the conditions and processes of the following preparative procedures, can be used to prepare these compounds. It is also understood that whenever a chemical reagent is not commercially available, such a chemical reagent can be readily prepared by those skilled in the art by either following or adapting known methods described in the literature or described herein. Chiral analogs were prepared via incorporation of chiral reagents or obtained after chiral chromatography separation of a racemically generated analog. All temperatures are degrees Celsius unless otherwise noted. Mass spectra (MS) were measured either by electrospray ion-mass spectroscopy (ESMS) or by atmospheric pressure chemical ionization mass spectroscopy (APCI). Jak1 data were obtained using the in vitro assay described below.
Jak Biochemical HTRF Assay Protocol
The ability of compounds to inhibit the activity of Jak1, Jak2, Jak3, and Tyk2 was measured using a recombinant purified GST-tagged catalytic domain for each enzyme (Invitrogen Jak1 #M4290, […]) in an HTRF format biochemical assay. The reactions employed a common peptide substrate, LCB-EQEDEPEGDYFEWLW-NH2 (in-house). The basic assay protocol is as follows: First, […] of diluted compounds in DMSO were dispensed into the wells of a dry 384-well Black plate (Greiner #781076) using a Labcyte Echo 555 acoustic dispenser. Subsequent reagent additions employed an Agilent Bravo. Next, 18 μL, of 1.11X enzyme and 1.11X substrate in 1X assay buffer (Invitrogen kinase buffer #PV3189, 2 mM DTT, 0.05% BSA) were added to the wells and shaken and then preincubated for 30 minutes at room temperature to allow compound binding to equilibrate. After equilibration, 2 μL of 10X ATP in 1X assay buffer was added to initiate the kinase reaction and the plates were shaken and then incubated at room temperature for 120 minutes. At the end of the incubation, 20 μL of 2X stop buffer (streptavidin-Dylight (Thermo #21845), Eu-tagged pY20 antibody (Perkin Elmer #AD0067), EDTA, HEPES, and Triton) was added to quench the reaction. Plates were shaken and centrifuged and then incubated 60 minutes at room temperature and then read on a Perkin Elmer Envision (λex=337 nm, λem=665 and 615 nm, TRF delay time=20 μs). HTRF signal=10,000*665 nm reading/615 nm reading. After normalization to untreated controls, the percent inhibition of the HTRF signal at each compound concentration was calculated. The plot of percent inhibition versus the log of compound concentration was fit with a 4-parameter dose response equation to calculate IC50 values.

[1] = IC50 class, read-out: Jak1 activity
[2] = 31.8 μM ATP, read-out: Representative IC50 values

T1 sequence (P23458 875-1153 limits assumed): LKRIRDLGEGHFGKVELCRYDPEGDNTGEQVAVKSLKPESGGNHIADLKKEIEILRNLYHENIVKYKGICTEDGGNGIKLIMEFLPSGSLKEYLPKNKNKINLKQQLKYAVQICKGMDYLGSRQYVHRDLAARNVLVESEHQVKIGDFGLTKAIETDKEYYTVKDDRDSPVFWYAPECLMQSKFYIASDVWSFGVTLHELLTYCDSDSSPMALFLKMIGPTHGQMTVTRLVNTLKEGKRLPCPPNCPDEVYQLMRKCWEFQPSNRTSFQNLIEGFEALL

Row | SMILES | pIC50 [1] | other results
1 | O=C(OCc1ccc(Cl)cc1)N1CCCC2C1CCN2c1ncnc2[nH]ccc12 (centres unmarked) [Example 3-6, 4-chlorobenzyl 1-(7H-pyrrolo[2,3-d]pyrimidin-4-yl)octahydro-4H-pyrrolo[3,2-b]-pyridine-4-carboxylate] | 7.00 to 8.00 | –
2 | CNC(=O)c1ccc(COC(=O)N2CCC[C@@H]3[C@H]2CCN3c2ncnc3[nH]ccc23)cc1 [Example 7-3, 4-(methylcarbamoyl)benzyl (3aR,7aR)-1-(7H-pyrrolo[2,3-d]pyrimidin-4-yl)octahydro-4H-pyrrolo[3,2-b]pyridine-4-carboxylate] | 6.00 to 7.00 | –
3 | COC(=O)C1CC1CCOC(=O)N1CCC[C@@H]2[C@H]1CCN2c1ncnc2[nH]ccc12 (stereo partly drawn) [Example 3-29, 2-[2-(methoxycarbonyl)cyclopropyl]ethyl (3aR,7aR)-1-(7H-pyrrolo[2,3-d]pyrimidin-4-yl)octahydro-4H-pyrrolo[3,2-b]pyridine-4-carboxylate] | 7.00 to 8.00 | –
4 | COc1cccc(COC(=O)N2CCCC3C2CCN3c2ncnc3[nH]ccc23)c1 (centres unmarked) [Example 3-4, 3-methoxybenzyl 1-(7H-pyrrolo[2,3-d]pyrimidin-4-yl)octahydro-4H-pyrrolo[3,2-b]-pyridine-4-carboxylate] | 7.00 to 8.00 | –
5 | C[C@@H](OC(=O)N1CCCC2C1CCN2c1ncnc2[nH]ccc12)c1ccccc1 (stereo partly drawn) [Example 3-23, (1R)-1-phenylethyl 1-(7H-pyrrolo[2,3-d]pyrimidin-4-yl)octahydro-4H-pyrrolo[3,2-b]-pyridine-4-carboxylate] | 7.00 to 8.00 | –
6 | O=S(=O)(N1CCC[C@@H]2[C@H]1CCN2c1ncnc2[nH]ccc12)C(F)(F)F (single isomer, unassigned) [Example 32-5] | 6.00 to 7.00 | –
7 | O=C(OCc1ccccc1)N1CCCC2C1CCN2c1ncnc2[nH]ccc12 (racemic) [Example 1, (3aS,7aS and 3aR,7aR) benzyl 1-(7H-pyrrolo[2,3-d]pyrimidin-4-yl)octahydro-4H-pyrrolo[3,2-b]-pyridine-4-carboxylate] | 7.00 to 8.00 | –
8 | O=C(c1ccccc1Cl)N1CCC[C@@H]2[C@H]1CCN2c1ncnc2[nH]ccc12 [Example 29-17, 4-{(3aR,7aR)-4-[(2-chlorophenyl)carbonyl]octahydro-1H-pyrrolo[3,2-b]pyridin-1-yl}-7H-pyrrolo[2,3-d]pyrimidine] | 7.00 to 8.00 | –
9 | O=C(OC1Cc2ccccc2C1)N1CCCC2C1CCN2c1ncnc2[nH]ccc12 (centres unmarked) [Example 3-11, 2,3-dihydro-1H-inden-2-yl 1-(7H-pyrrolo[2,3-d]pyrimidin-4-yl)octahydro-4H-pyrrolo[3,2-b]pyridine-4-carboxylate] | 7.00 to 8.00 | –
10 | O=C(OCCCc1cccnc1)N1CCCC2C1CCN2c1ncnc2[nH]ccc12 (centres unmarked) [Example 3-5, 3-pyridin-3-ylpropyl 1-(7H-pyrrolo[2,3-d]pyrimidin-4-yl)octahydro-4H-pyrrolo[3,2-b]-pyridine-4-carboxylate] | 7.00 to 8.00 | –
11 | O=C(c1cnccn1)N1CCC[C@@H]2[C@H]1CCN2c1ncnc2[nH]ccc12 [Example 29-13, 4-[(3aR,7aR)-4-(pyrazin-2-ylcarbonyl)octahydro-1H-pyrrolo[3,2-b]pyridin-1-yl]-7H-pyrrolo[2,3-d]pyrimidine] | 7.00 to 8.00 | –
12 | COC(=O)c1ccc(COC(=O)N2CCC[C@@H]3[C@H]2CCN3c2ncnc3[nH]ccc23)cc1 [Example 4, 4-(methoxycarbonyl)benzyl (3aR,7aR)-1-(7H-pyrrolo[2,3-d]pyrimidin-4-yl)octahydro-4H-pyrrolo[3,2-b]pyridine-4-carboxylate] | 8.00 to 9.00 | pIC50 [2]: 8.70
13 | O=C(OC1CCOCC1)N1CCCC2C1CCN2c1ncnc2[nH]ccc12 (centres unmarked) [Example 3-10, tetrahydro-2H-pyran-4-yl 1-(7H-pyrrolo[2,3-d]pyrimidin-4-yl)octahydro-4H-pyrrolo[3,2-b]pyridine-4-carboxylate] | 7.00 to 8.00 | –
14 | COC(=O)c1ccc(CCC(=O)N2CCC[C@@H]3[C@H]2CCN3c2ncnc3[nH]ccc23)cc1 [Example 26, methyl 4-{3-oxo-3-[(3aR,7aR)-1-(7H-pyrrolo[2,3-d]pyrimidin-4-yl)octahydro-4H-pyrrolo[3,2-b]pyridine-4-yl]propyl}benzoate] | 7.00 to 8.00 | –
15 | N#CCC(=O)N1CCCC2C1CCN2c1ncnc2[nH]ccc12 [Example 12, (3aS,7aS and 3aR,7aR) 3-oxo-3-[1-(7H-pyrrolo[2,3-d]pyrimidin-4-yl)octahydro-4H-pyrrolo[3,2-b]pyridin-4-yl]propanenitrile] | 7.00 to 8.00 | pIC50 [2]: 7.59
16 | C[C@H](OC(=O)N1CCC[C@@H]2C1CCN2c1ncnc2[nH]ccc12)c1ccccc1 (stereo partly drawn) [Example 8-2, (1S)-1-phenylethyl (3aR,7 aR)-1-(7H-pyrrolo[2,3-d]pyrimidin-4-yl)octahydro-4-pyrrolo[3,2-b]pyridine-4-carboxylate] | 7.00 to 8.00 | –
17 | O=C(c1cccc2cccnc12)N1CCC[C@@H]2[C@H]1CCN2c1ncnc2[nH]ccc12 [Example 29-51, 8-{[(3aR,7aR)-1-(7H-pyrrolo[2,3-d]pyrimidin-4-yl)octahydro-4H-pyrrolo[3,2-b]pyridin-4-yl]carbonyl}quinoline] | 6.00 to 7.00 | –
18 | O=C(c1ccnc2ccccc12)N1CCC[C@@H]2[C@H]1CCN2c1ncnc2[nH]ccc12 [Example 29-61, 4-{[(3aR,7aR)-1-(7H-pyrrolo[2,3-d]pyrimidin-4-yl)octahydro-4H-pyrrolo[3,2-b]pyridin-4-yl]carbonyl}quinoline] | 7.00 to 8.00 | –
19 | O=C(c1cccc(N2CCOCC2)c1)N1CCC[C@@H]2[C@H]1CCN2c1ncnc2[nH]ccc12 [Example 29-22, 4-{(3aR,7aR)-4-[(3-morpholin-4-ylphenyl)carbonyl]octahydro-1H-pyrrolo[3,2-b]pyridin-1-yl}-7H-pyrrolo[2,3-d]pyrimidine] | 6.00 to 7.00 | –
20 | CN(C)CCN(C)C(=O)c1ccc(COC(=O)N2CCC[C@@H]3[C@H]2CCN3c2ncnc3[nH]ccc23)cc1 [Example 7-5, 4-{[2-(dimethylamino)ethyl](methyl)carbamoyl}benzyl (3aR,7aR)-1-(7H-pyrrolo[2,3-d]pyrimidin-4-yl)octahydro-4H-pyrrolo[3,2-b]pyridine-4-carboxylate] | 6.00 to 7.00 | –
21 | O=C(OCc1cnccn1)N1CCCC2C1CCN2c1ncnc2[nH]ccc12 (centres unmarked) [Example 3-18, pyrazin-2-ylmethyl 1-(7H-pyrrolo[2,3-d]pyrimidin-4-yl)octahydro-4H-pyrrolo[3,2-b]-pyridine-4-carboxylate] | 7.00 to 8.00 | –
22 | CC(C)(C)OC(=O)NCc1ccc(COC(=O)N2CCC[C@@H]3[C@H]2CCN3c2ncnc3[nH]ccc23)cc1 [Example 8-1, 4-{[(tert-butoxycarbonyl)amino]methyl}benzyl(3aR,7aR)-1-(7H-pyrrolo[2,3-d]pyrimidin-4-yl)octahydro-4-pyrrolo[3,2-b]pyridine-4-carboxylate] | 6.00 to 7.00 | –
23 | O=C(c1cc2ccccc2[nH]1)N1CCC[C@@H]2[C@H]1CCN2c1ncnc2[nH]ccc12 [Example 29-19, 4-[(3aR,7aR)-4-(1H-indol-2-ylcarbonyl)octahydro-1H-pyrrolo[3,2-b]pyridin-1-yl]-7H-pyrrolo[2,3-d]pyrimidine] | – | pIC50 (Jak1 activity, IC50 class): 6.00 to 7.00
24 | CC(Cc1ccccc1)C(=O)N1CCC[C@@H]2[C@H]1CCN2c1ncnc2[nH]ccc12 (mixture of isomers) [Example 29-56, (2S and 2R)-2-methyl-3-phenyl-1-[(3aR,7aR)-1-(7H-pyrrolo[2,3-d]pyrimidin-4-yl)octahydro-4H-pyrrolo[3,2-b]pyridine-4-yl]propan-1-one] | 7.00 to 8.00 | –
25 | CC1CCN(C(=O)OCc2ccccc2)C2CCN(c3ncnc4[nH]ccc34)C12 [Example 20, (3aS,7S,7aS and 3aR,7R,7aR) benzyl 7-methyl-1-(7H-pyrrolo[2,3-d]pyrimidin-4-yl)octahydro-4H-pyrrolo[3,2-b]pyridine-4-carboxylate] | – | pIC50 (Jak1 activity, IC50 class): 7.00 to 8.00; pIC50 (Representative IC50 values, 31.8 μM ATP): 7.92
26 | COC(=O)c1cccc(COC(=O)N2CCC[C@@H]3[C@H]2CCN3c2ncnc3[nH]ccc23)c1 [Example 3-20, 3-(methoxycarbonyl)benzyl (3aR,7aR)-1-(7H-pyrrolo[2,3-d]pyrimidin-4-yl)octahydro-4H-pyrrolo[3,2-b]pyridine-4-carboxylate] | 6.00 to 7.00 | –

From patent publication US8937077B2, “Bicyclic diamines as janus kinase inhibitors” (Merck Sharp & Dohme Corp., priority 2010, dated 2015)
